Data on nine molecules can be found in publication PMC9877316, “Identification of a novel P2X7 antagonist using structure-based virtual screening” (Frontiers in Pharmacology, 2023).

Entries after “also recorded” stand apart in the source; their conditions may differ. Where two headings read alike, the source gives them in different places.

Data set [1] has as its target tyrosine kinase Syk. The arrangement: method as in Villoutreix et al., 2011. The conditions noted are these: ref Villoutreix et al., 2011; cited from earlier work.
In data set [2] the test system is tyrosine kinase Syk. The arrangement: method as in Villoutreix et al., 2011. The conditions noted are these: antibody displacement assay; ref Villoutreix et al., 2011; cited from earlier work.
In data set [3] the test system is mast cell degranulation. Also on record: method as in Villoutreix et al., 2011. The conditions noted are these: ref Villoutreix et al., 2011; read-out: IC50 for inhibiting mast cell degranulation; cited from earlier work.
The nature of data set [4]: Solubility observations. The format is physicochemical.
In data set [5] the target is T1, human P2X7 (Homo sapiens, UniProt Q99572).
T1 construct: expressed in transfected cells; host or cells: 1321N1 astrocytoma cells (compounds 1-17); HEK-293 cells stably expressing human P2X7 (gift of E. Adinolfi)
T1 sequence (Q99572 1-595): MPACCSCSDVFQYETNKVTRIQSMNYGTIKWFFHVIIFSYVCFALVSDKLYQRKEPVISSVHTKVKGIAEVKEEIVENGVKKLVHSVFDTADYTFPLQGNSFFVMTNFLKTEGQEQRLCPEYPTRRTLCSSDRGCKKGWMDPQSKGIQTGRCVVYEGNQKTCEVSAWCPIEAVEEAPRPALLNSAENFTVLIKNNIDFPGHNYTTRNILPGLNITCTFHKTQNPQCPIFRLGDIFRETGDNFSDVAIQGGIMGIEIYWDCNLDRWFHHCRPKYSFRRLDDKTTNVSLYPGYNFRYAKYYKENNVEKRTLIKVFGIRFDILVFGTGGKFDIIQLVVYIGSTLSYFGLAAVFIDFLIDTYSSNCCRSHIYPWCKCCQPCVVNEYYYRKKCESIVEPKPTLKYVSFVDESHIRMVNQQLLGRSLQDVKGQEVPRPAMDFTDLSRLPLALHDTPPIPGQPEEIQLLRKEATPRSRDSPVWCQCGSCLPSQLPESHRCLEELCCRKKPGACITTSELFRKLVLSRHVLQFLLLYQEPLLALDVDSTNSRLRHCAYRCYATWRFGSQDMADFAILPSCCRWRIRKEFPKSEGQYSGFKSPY
As to the kind of experiment: ATP-induced YoPro-1 dye uptake assay, human P2X7. The conditions noted are these: for reduction in ATP-induced dye uptake at human P2X7: 30 µM compound, 300 μM ATP; for inhibition at 30 µM: P2X7, approx. % inhibition at 30 μM compound, 300 µM ATP, YoPro-1 uptake, 1321N1 (1-17) or HEK (18-33) cells, read-out: % Inhibition at hP2X7. The format is cell-based. As for the experimental part:
(§1) 1321N1 astrocytoma cells and HEK-293 cells were cultured (at 37°C, 5% CO2) in Dulbecco’s modified Eagle’s medium (DMEM/F-12 with Glutamax) supplemented with 10% foetal bovine serum (FBS) and 200 unit/ml of penicillin and streptomycin antibiotics (Fisher Scientific). For stable cell line generation, cells were transfected using FuGene HD Transfection Reagent (Promega) according to the manufacturer’s protocol with plasmids encoding either human P2X4 with a C-terminal (His)10 tag ([Young et al., 2008]), human P2X7 with a C-terminal EYMPME tag (kindly provided by R.A. North) or rat P2X7 C-terminally tagged with a GFP-(His)8 tag, generated by PCR amplification of the coding sequence for rat P2X7 from a pcDNA-based expression vector ([Young et al., 2007]), adding XhoI and EcoRI sites at the 5′- and 3′- ends respectively, followed by restriction digestion and ligation into a zebrafish P2X4-GFP expression vector based on pEGFP-C1 (kindly provided by Eric Gouaux; [Kawate and Gouaux, 2006]) to replace the zebrafish P2X4 coding region with rP2X7. Transfected clones were grown in DMEM/F-12 with Glutamax medium supplemented with G-418 (Geneticin®, Fisher Scientific), 600 μg/ml and 150 μg/ml during selection and maintenance respectively. […] HEK-293 cells stably expressing human P2X7 ([Adinolfi et al., 2010]) were a kind gift from Elena Adinolfi.
(§2) Cells were plated as for the calcium influx assay (Section 2.4). Culture medium was replaced with low divalent cation containing extracellular solution (ECS-LD; 147 mM NaCl, 10 mM HEPES, 13 mM Glucose, .2 mM CaCl2, 2 mM KCl. pH = 7.4 in MilliQ water) and 5 μM Yopro-1. […] The baseline was measured with a BMG Clariostar instrument for 5–10 cycles, followed by addition of ATP (or BzATP) and recording for at least 30 further cycles (approx. 1 min per data point). The collected responses were normalized to the first data-point recorded after ATP addition. The initial gradient of the dye uptake curve was used to calculate the response to ATP.
The antagonist activity of the 17 compounds (applied at 10 µM) was assayed initially on 1321N1 astrocytoma cells stably expressing human P2X4 receptors by measuring the ATP-induced (applied at 1.2 µM) increase in Fluo-4 fluorescence due to calcium influx via P2X4, using 2 µM BX430 as a positive control (Figure 1A). […] The ATP-induced rate of uptake of YoPro-1 dye was measured upon application of at 300 µM ATP, using .1 µM A740003 as a positive control (Figure 1B).
A small library of 16 commercially available compounds was selected according to the presence of the same scaffold as GP-25, (70% similarity, Tanimoto index) and/or presence of at least one functional group we hypothesized could contribute to GP-25 activity (e.g. carboxylic acid, halogen substituent to the aromatic ring, ester, etc.) (Compounds 18–33; Table 1). […] Although the number of compounds tested was limited by their availability via a commercial source, the numerous ‘hits’ allowed for a basic structure-relationship (SAR) analysis.

Data set [6] concerns the target T2, rat P2X7 (Rattus norvegicus, UniProt Q64663).
T2 construct: expressed in transfected cells; host or cells: HEK-293 cells stably expressing rat P2X7-GFP (patch clamp)
T2 sequence (Q64663 1-595): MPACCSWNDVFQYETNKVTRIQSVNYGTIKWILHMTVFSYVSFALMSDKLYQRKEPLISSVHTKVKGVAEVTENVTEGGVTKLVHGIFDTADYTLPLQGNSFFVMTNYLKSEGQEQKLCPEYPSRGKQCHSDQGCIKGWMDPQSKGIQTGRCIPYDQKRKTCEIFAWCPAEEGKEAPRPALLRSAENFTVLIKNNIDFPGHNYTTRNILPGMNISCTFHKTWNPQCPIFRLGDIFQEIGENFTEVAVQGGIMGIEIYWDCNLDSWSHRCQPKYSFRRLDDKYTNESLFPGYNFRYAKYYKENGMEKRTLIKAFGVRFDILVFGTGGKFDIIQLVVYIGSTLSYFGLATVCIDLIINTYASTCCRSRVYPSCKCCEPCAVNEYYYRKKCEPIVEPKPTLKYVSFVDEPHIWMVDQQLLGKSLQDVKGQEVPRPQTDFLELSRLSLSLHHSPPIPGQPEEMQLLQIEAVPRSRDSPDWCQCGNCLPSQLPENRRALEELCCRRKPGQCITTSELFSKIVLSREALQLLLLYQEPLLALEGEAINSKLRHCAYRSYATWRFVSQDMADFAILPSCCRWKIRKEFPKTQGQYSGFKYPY
As to the kind of experiment: ATP/BzATP-induced YoPro-1 dye uptake assay, rat P2X7. The format is cell-based. Particulars: for antagonist activity at rat P2X7: 30 µM compound, 300 μM ATP; for inhibition at 30 µM: approx. % inhibition at 30 μM compound, 300 µM ATP, YoPro-1 uptake, rat P2X7-GFP, read-out: % Inhibition at rP2X7. As for the experimental part: as §1, §2
In order to confirm GP-25 as a competitive (orthosteric) antagonist, BzATP concentration-response curves (ranging between 300 μM and .03 µM) were constructed for rat P2X7-GFP in the YoPro-1 uptake assay in the presence of increasing concentrations of GP-25 (Figure 3A).

As for `CCOC(=O)C1=C(C)NC2=C(C(=O)c3ccccc32)C1c1cc(Br)ccc1OCC(=O)O` (stereo not drawn) [Chembridge ID 6422575, (4-bromo-2-[3-(ethoxycarbonyl)-2-methyl-5-oxo-4,5-dihydro-1H-indeno[1,2-b]pyridin-4-yl]phenoxy) acetic acid], the Kd in data set [1] is 6.2 µM. In addition, the “inhibition of antibody binding” value in data set [2] is reported as 81%. For the same molecule, in data set [3], the IC50 was at least 20 µM.
As for `CCSc1nnc(NC(=O)CSc2nnc3c4ccccc4n(C)c3n2)s1` [Compound 7], the solubility result in data set [4] is given as “very low solubility”.
Take `COC(=O)C1=C(C)NC2=C(C(=O)c3ccccc32)C1c1ccc(-c2cc([N+](=O)[O-])ccc2Cl)o1` (stereo not drawn) [Compound 22]: the solubility result in data set [4] (listed as GP-50) is listed as “less soluble than GP-47 or GP-25; also recorded: low solubility”. Further, in data set [5], the “reduction in ATP-induced dye uptake at human P2X7” value (shortened to “reduction”) was “statistically significant reduction” and the inhibition at 30 µM was 69%. Also, in data set [6], the “antagonist activity at rat P2X7” value is on record as “no activity” and the inhibition at 30 µM was below 0%.
Regarding `CC1(C)CC(=O)C2=C(C1)NC1=C(C(=O)c3ccccc31)C2c1cccnc1` (stereo not drawn) [Compound 28], in data set [5], the “reduction” value is on record as “statistically significant reduction” and the inhibition at 30 µM came to 32%. For the same molecule, in data set [6], the inhibition at 30 µM was below 0%.
Turning to `CCSc1nnc2c(n1)OC(c1cc(Br)ccc1OCC(=O)O)Nc1ccccc1-2` (stereo not drawn) [Compound 29], the inhibition at 30 µM in data set [5] is 20%; in data set [6] it was below 0%.
The corresponding values for `CC1(C)CC(=O)C2=C(C1)NC1=C(C(=O)c3ccccc31)C2c1cccc(O)c1` (stereo not drawn) [Compound 30] are 27% and below 0%.
For `COC(=O)C1=C(C)NC2=C(C(=O)c3ccccc32)C1c1cc(OC)c(OC)c(OC)c1` (stereo not drawn) [Compound 31], the values for the inhibition at 30 µM in data set [5] and in data set [6] were 29% and below 10%, respectively.
Turning to `CCOC(=O)C1=C(C)N(C)C2=C(C(=O)c3ccccc32)C1c1cc(OC)c(OC)c(OC)c1` (stereo not drawn) [Compound 32], in data set [5], the “reduction” value is “statistically significant reduction” and the inhibition at 30 µM is 55%. In data set [6], the “antagonist activity at rat P2X7” value is given as “no activity” and the inhibition at 30 µM turned out to be 19%.
With `CC(=O)C1=C(C)NC(=S)NC1c1cc(Br)ccc1OCC(=O)O` (stereo not drawn) [Compound 33], the inhibition at 30 µM in data set [5] is 18%; in data set [6], 16%.

Usually Kd stands for the equilibrium constant for the complex coming apart. For orientation: IC50 means the concentration that gives 50% inhibition. By inhibition is commonly meant the relative decrease from the control value, in per cent.
